Reference: publication PMC9414874, “New Benzimidazoles Targeting Breast Cancer: Synthesis, Pin1 Inhibition, 2D NMR Binding, and Computational Studies” (Molecules, 2022)
“And” between values parts separate entries of the source, which are not always exact repeats. Equal values may be shown once. Read-outs that look alike come from different tables or passages of the source.

Legend:
BAX = BAX level by ELISA in MCF-7 cells; format: cell-based, human
Description: (§1) Apoptosis can be excited by different stimuli via intrinsic and extrinsic pathways. It was reported that pin 1 inhibition involving apoptosis was performed via intrinsic mitochondrial l) pathways. […] The Bax/Bcl-2 ratio plays an important role in controlling the release of mitochondrial cytochrome c, after its release to the cytosol, caspase 9 is activated which can mediate downstream caspase activation including: caspase-3, caspase-6, and caspase-7 that obligated cells to apoptosis. Based on the above, we examined compound 8 capability to trigger intrinsic apoptotic pathways by affecting the expression of these markers in MCF-7 cells. […] In addition, it elevated the level of cytochrome C by about 2.49-fold compared to the control. […]
(§2) The level of BAX, Bcl-2, cytochrome C, and caspases 6, 7, and 9 were estimated using ELISA colorimetric kits; for BAX (DRG® Human Bax ELISA, EIA-4487), Bcl-2 (Zymed® Bcl-2 ELISA Kit), cytochrome c (Abcam cytochrome c Human ELISA kit, ab119521), caspase-6 (Human CASP6, ELISA Kit, MBS2533323), caspase-7 (Caspase-7 (Human) ELISA Kit, E4295-100), caspase-9 (DRG® Caspase-9 (human) ELISA, EIA-4860). […] This lysate was diluted in Standard Diluent Buffer all over the assay, then by using a microplate reader set at 450 nm, the optical density of each well was determined within 30 min to determine the human active BAX, Bcl-2, cytochrome C, caspases 6, 7 and 9 content.

ROS in MCF-7 cells = test: Intracellular ROS accumulation assay (Human ROS ELISA Kit); format: cell-based
Description: Reactive oxygen species (ROS) are chemically reactive species containing oxygen atoms including peroxides, superoxide, and hydroxyl radicals. They play an important role in the activation of apoptosis under physiological or pathological conditions. Direct or indirect ROS action can mediate the release of mitochondrial cytochrome c which trigger the induction of caspase. The intracellular level of ROS was estimated by The Human ROS ELISA Kit, which is based on standard sandwich enzyme-linked immunosorbent assay technology.
The Human ROS ELISA Kit is based on standard sandwich enzyme-linked immunosorbent assay technology. In which, the anti-Human ROS specific antibody has been pre-coated onto a 96-well plate and the human ROS present in the standards/samples bind to the capture antibody. Then biotinylated anti-Human ROS detection antibody is added to form an Ab-Ag-Ab sandwich. After a washing step, streptavidin-HRP is added and the unbound conjugate is removed with wash buffer. Subsequently, the addition of HRP substrate, TMB, results in the production of a blue-colored product that changes to yellow after the addition of acidic Stop Solution, and the density of yellow color is directly proportional to the amount of Human ROS captured on the plate. […] After that adding 90 μL TMB substrate, incubating 15–30 min at 37 °C, adding 50 μL Stop Solution and reading at 450 nm immediately. […]

MCF-7 = test: MTT cytotoxicity assay against breast cancer cell line MCF-7; details: for IC50: Homo sapiens
Description: All our newly synthesized hybrids were evaluated for their in vitro anticancer activity by the standard MTT assay against a breast cancer cell line (MCF-7). MTT is a calorimetric assay which relies on the ability of live tumor cells to reduce yellow MTT (3-(4,5-dimethylthiazol-2-yl)-2,5-diphenyltetrazolium bromide) to purple formazan by mitochondrial dehydrogenases, then added DMSO to dissolve the purple formazan and quantified by measuring absorbance at a certain wavelength. The dose response curve for compounds-treated vs. untreated cells is used to quantify the amount of formazan produced to report on the effectiveness of the compounds. […] Cell line: Mammary gland breast cancer (MCF-7). The cell line was obtained from ATCC via Holding company for biological products and vaccines (VACSERA), Cairo, Egypt. […] The cell line elucidated above were used to determine the inhibitory effects of compounds on cell growth using the MTT assay. […] After incubation, the cells were treated with different concentrations of compounds and incubated for an additional 24 h. After 24 h of drug treatment, 20 µL of MTT solution at 5 mg/mL was added and incubated for 4 h. […] The relative cell viability in percentage was calculated as (A570 of treated samples/A570 of the untreated sample) × 100 [48].

caspase-6 = test: Caspase-6 level by ELISA in MCF-7 cells; format: cell-based, human; details: mean ± SD of three experiments
Description: as §1, §2

Pin1 = Pin1 (Homo sapiens, UniProt Q13526); test: Pin1 inhibition assay (SensoLyte Green Pin1 Assay Kit); format: biochemical; design: purchased; details: means ± SD of three experiments
Pin1, sequence (Q13526 whole entry): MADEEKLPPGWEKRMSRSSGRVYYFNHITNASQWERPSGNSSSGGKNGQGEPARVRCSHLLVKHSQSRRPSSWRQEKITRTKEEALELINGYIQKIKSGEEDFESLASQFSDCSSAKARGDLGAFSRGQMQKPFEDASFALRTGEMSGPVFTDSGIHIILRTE
Description: The ability of the synthesized compounds to inhibit the Pin1 activity was evaluated using the SensoLyte® Green Pin1 Assay Kit. This assay is based on using a fluorogenic substrate which was pretreated to convert it into the cis isomer. Pin1 can change this substrate into the trans isomer that is easily cleaved to generate a fluorescent signal.

caspase-7 = test: Caspase-7 level by ELISA in MCF-7 cells; format: cell-based, human
Description: as §1, §2

MCF-7 cells [1] = test: Annexin V-FITC/PI dual staining apoptosis assay; format: cell-based, human; details: MCF-7, 2 µM, 24 h
Description: This assay was performed using a breast MCF-7 cell line to determine the percentage of apoptosis induced by compound 8, in which MCF-cells were incubated with compound 8 at 2 µM concentration for 24 h.
Apoptosis detection was performed by using Annexin V-FITC and PI apoptosis kit (eBioscience^TM, San Diego, CA, USA). Mcf cells were plated at a 600,000 cells/mL density onto a six well plate. After 24 h of incubation, the cells were treated with compound 8 at […]. Cells grown in media containing an equivalent amount of DMSO served as solvent control. After 24 h, the cells were stained with an Annexin V-FITC conjugate and propidium iodide (PI), and the percentage of apoptotic, necrotic, and living cells was determined according to the protocol provided by the Annexin V-FITC and PI apoptosis kit. The cells’ emitted fluorescence was analyzed by flow cytometry (NovoCyte, ACEA Biosciences Inc., San Diego, CA, USA) through the NovoExpress 1.3.0 software (ACEA Biosciences Inc., San Diego, CA, USA), acquiring 1 × 104 events per sample using the population plot “dot plot”, where each point corresponds to a single event with a specific fluorescence signal about the axes; Annexin V-FITC green fluorescence in abscissa vs. PE red fluorescence inordinate.

cytochrome C = test: Cytochrome c level by ELISA in MCF-7 cells; format: cell-based, human
Description: as §1, §2

caspase-9 = test: Caspase-9 level by ELISA in MCF-7 cells; format: cell-based, human
Description: as §1, §2

[2] = In vitro cytotoxicity against normal Human lung fibroblast (WI38) cell line; format: cell-based; details: human, WI38 normal lung fibroblast cells
WI38 = test: as above; format: cell-based
MCF-7 cells [3] = test: Cell cycle distribution / DNA content by flow cytometry; format: cell-based, human; details: MCF-7, 2 µM, 24 h
Bcl-2 = Bcl-2 level by ELISA in MCF-7 cells; format: cell-based, human
Description: as §1, §2

CN(C)c1ccc(C2CC(c3nc4cc(Cl)c(Cl)cc4[nH]3)=NO2)cc1 (stereo not shown) [Compound 8, 4-(3-(5,6-Dichloro-1H-benzo[d]imidazol-2-yl)-4,5-dihydroisoxazol-5-yl)-N,N-dimethylaniline]
Increase of Bax level compared to the control (BAX): 4.63 fold | BAX level (BAX; mean ± SD of three experiments): 268.71 ± 9.20 pg/mL | ROS accumulation higher than the control cells (ROS in MCF-7 cells): 1.258 fold | IC50 (MCF-7; MCF7, 24 h, read-out: In Vitro Cytotoxicity IC50 MCF-7, MTT assay, 24 h treatment): 8.7 ± 0.6 µM | IC50 (MCF-7; MCF7, read-out: IC50 against breast cancer cell line (MCF-7), MTT assay, section 2.2): 8.76 µM | Cytotoxic activity class against MCF-7 (MCF-7; class by IC50): very strong (1–10 (very strong)) | Casp.6 level (caspase-6): 0.48 ± 0.02 ng/mL | IC50 (Pin1): 0.00076 ± 4e-05 µM | melting point: 155 to 158 °C | Enhancement of caspase 7 level compared to the control (caspase-7): ~9.06 fold | Casp.7 level (caspase-7; mean ± SD of three experiments): 4.17 ± 0.11 ng/mL | Apoptosis Early (MCF-7 cells [1]): 3.7% and 3.71% | Apoptosis Late (MCF-7 cells [1]): 15.32% | Apoptosis Total (MCF-7 cells [1]): 38.25% | Increase of apoptosis (15.32%) over untreated cells (MCF-7 cells [1]): 128 fold | Necrosis (MCF-7 cells [1]): 19.22% | Elevation of cytochrome C level compared to the control (cytochrome C): about 2.49 fold | Cytoc level (cytochrome C; mean ± SD of three experiments): 0.62 ± 0.02 ng/mL | Enhancement of caspase 9 level compared to the control (caspase-9): ~8.97 fold | Casp.9 level (caspase-9; mean ± SD of three experiments): 20.86 ± 0.73 ng/mL | IC50 at 24 h [2]: 71.6 µM | IC50 (WI38): 71.6 ± 4 µM | DNA Content %G0-G1 (MCF-7 cells [3]): 44.29% | DNA Content %G2-M (MCF-7 cells [3]): 6.45% | DNA Content %Pre G1 (MCF-7 cells [3]): 38.25% | DNA Content %S (MCF-7 cells [3]): 49.26% | Decrease of Bcl-2 level compared to the control (Bcl-2): 39% | BCL-2 level (Bcl-2; mean ± SD of three experiments): 2.81 ± 0.07 ng/mL
